Laboratory results: patent publication US9315503B2, “Kinase inhibitors” (CHIESI FARMACEUTICI S.p.A., priority 2011, dated 2016)
Counter-ions that a name gives are not always drawn.

Legend:
p38alpha = biological target: T1, p38alpha (Homo sapiens, UniProt Q16539); test: P38Alpha enzyme inhibition assay (Alphascreen kinase activity assay); format: biochemical; conditions: 100 pM p38alpha, 250 μM ATP, 2 hours pre-incubation at 25° C., read-out: p38α inhibition (IC50 values)
T1 construct: purchased Invitrogen PV3304
Outline: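 AlphaScreen read-out: after an EDTA stop, an anti-phospho-ATF2 antibody with Protein A acceptor and donor beads measured substrate phosphorylation. Compounds sat 2 h at 25°C with 100 pM p38α and 0.3 µg/ml ATF-2 fusion protein (pH 7.5, 1% DMSO) before 250 µM ATP was added for 1 h. IC50 from dose-response.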

[1] = test system: LPS-stimulated TNFα release from PBMCs; test: LPS-stimulated PBMC TNFα release assay; format: cell-based; conditions: inhibition of TNFα release, human PBMCs, LPS 10 ng/ml, 18 h, ELISA, read-out: p38α inhibition (IC50 values)
Outline: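 TNFα in supernatants measured by ELISA after 18 h LPS (10 ng/ml) challenge of human PBMCs given 1 h compound pretreatment at 37 °C in medium with 1% FBS. Percent inhibition versus control release fitted to dose-response curves for IC50; at least three independent runs.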

T1 sequence (Q16539 whole entry): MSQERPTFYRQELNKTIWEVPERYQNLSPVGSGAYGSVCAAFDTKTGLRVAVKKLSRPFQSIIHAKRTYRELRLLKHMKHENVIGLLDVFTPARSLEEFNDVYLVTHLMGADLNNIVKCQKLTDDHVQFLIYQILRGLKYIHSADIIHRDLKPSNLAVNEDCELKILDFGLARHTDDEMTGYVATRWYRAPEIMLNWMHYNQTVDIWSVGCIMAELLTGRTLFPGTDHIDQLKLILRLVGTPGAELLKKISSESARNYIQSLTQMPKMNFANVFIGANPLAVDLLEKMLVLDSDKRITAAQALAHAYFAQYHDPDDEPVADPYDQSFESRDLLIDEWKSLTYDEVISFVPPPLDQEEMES

| IC50 (p38alpha) [nM] | SMILES | IC50 [1] [nM] |
| --- | --- | --- |
| < 10 | Cc1ccc(-n2nc(C(C)(C)C)cc2NC(=O)N[C@H]2CC[C@@H](Oc3ccc4nnc(N5CC[C@@H](CO)C5)n4c3)c3ccccc32)cc1 [Example 93, 1-(5-tert-Butyl-2-p-tolyl-2H-pyrazol-3-yl)-3-{(1S,4R)-4-[3-((R)-3-hydroxymethyl-pyrrolidin-1-yl)-[1,2,4]triazolo[4,3-a]pyridin-6-yloxy]-1,2,3,4-tetrahydro-naphthalen-1-yl}-urea] | < 10 |
| < 10 | Cc1ccc(-n2nc(C(C)(C)C)cc2NC(=O)N[C@H]2CC[C@@H](Oc3ccc4nnc(N5CCN(CCO)CC5)n4c3)c3ccccc32)cc1 [Example 94, 1-(5-tert-Butyl-2-p-tolyl-2H-pyrazol-3-yl)-3-((1S,4R)-4-{3-[4-(2-hydroxy-ethyl)-piperazin-1-yl]-[1,2,4]triazolo[4,3-a]pyridin-6-yloxy}-1,2,3,4-tetrahydro-naphthalen-1-yl)-urea] | 10 to 100 |
| < 10 | C[C@H]1CCCCN1c1nnc2ccc(O[C@@H]3CC[C@H](NC(=O)Nc4cc(C(C)(C)C)nn4-c4cccc(OCCN(C)C)c4)c4ccccc43)cn12 [Example 95] | < 10 |
| < 10 | C[C@@H]1CCC[C@H](C)N1c1nnc2ccc(O[C@@H]3CC[C@H](NC(=O)Nc4cc(C(C)(C)C)nn4-c4cccc(OCCN(C)C)c4)c4ccccc43)cn12 [Example 96, 1-{5-tert-Butyl-2-[3-(2-dimethylamino-ethoxy)-phenyl]-2H-pyrazol-3-yl}-3-{(1S,4R)-4-[3-(cis-2,6-dimethyl-piperidin-1-yl)-[1,2,4]triazolo[4,3-a]pyridin-6-yloxy]-1,2,3,4-tetrahydro-naphthalen-1-yl}-urea formate salt] | < 10 |
| < 10 | C[C@H]1CCCCN1c1nnc2ccc(O[C@@H]3CC[C@H](NC(=O)Nc4cc(C(C)(C)C)nn4-c4cccc(CN5CCOCC5)c4)c4ccccc43)cn12 [Example 97, 1-[5-tert-Butyl-2-(3-morpholin-4-ylmethyl-phenyl)-2H-pyrazol-3-yl]-3-{(1S,4R)-4-[3-((S)-2-methyl-piperidin-1-yl)-[1,2,4]triazolo[4,3-a]pyridin-6-yloxy]-1,2,3,4-tetrahydro-naphthalen-1-yl}-urea formate salt] | < 10 |
| < 10 | C[C@H]1CCCCN1c1nnc2ccc(O[C@@H]3CC[C@H](NC(=O)Nc4cc(C(C)(C)C)nn4-c4cccc(CN5CCN(C)CC5)c4)c4ccccc43)cn12 [Example 98, 1-{5-tert-Butyl-2-[3-(4-methyl-piperazin-1-ylmethyl)-phenyl]-2H-pyrazol-3-yl}-3-{(1S,4R)-4-[3-((S)-2-methyl-piperidin-1-yl)-[1,2,4]triazolo[4,3-a]pyridin-6-yloxy]-1,2,3,4-tetrahydro-naphthalen-1-yl}-urea formate salt] | < 10 |
| < 10 | Cc1ccc(-n2nc(C(C)(C)C)cc2NC(=O)N[C@H]2CC[C@@H](Oc3ccc4nnc(C5(N(C)C)CCCC5)n4c3)c3ccccc32)cc1 [Example 99, 1-(5-tert-Butyl-2-p-tolyl-2H-pyrazol-3-yl)-3-{(1S,4R)-4-[3-(1-dimethylamino-cyclopentyl)-[1,2,4]triazolo[4,3-a]pyridin-6-yloxy]-1,2,3,4-tetrahydro-naphthalen-1-yl}-urea] | < 10 |
| < 10 | Cc1ccc(-n2nc(C(C)(C)C)cc2NC(=O)N[C@H]2CC[C@@H](Oc3ccc4nnc(N5[C@H](C)CCC[C@@H]5C)n4c3)c3ccccc32)cc1 [Example 100, 1-(5-tert-Butyl-2-p-tolyl-2H-pyrazol-3-yl)-3-{(1S,4R)-4-[3-((2S,6R)-2,6-dimethyl-piperidin-1-yl)-[1,2,4]triazolo[4,3-a]pyridin-6-yloxy]-1,2,3,4-tetrahydro-naphthalen-1-yl}-urea] | < 10 |
| < 10 | Cc1ccc(-n2nc(C(C)(C)C)cc2NC(=O)N[C@H]2CC[C@@H](Oc3ccc4nnc(N)n4c3)c3ccccc32)cc1 [Example 101, 1-[(1S,4R)-4-(3-Amino-[1,2,4]triazolo[4,3-a]pyridin-6-yloxy)-1,2,3,4-tetrahydro-naphthalen-1-yl]-3-(5-tert-butyl-2-p-tolyl-2H-pyrazol-3-yl)-urea] | < 10 |
| < 10 | Cc1ccc(-n2nc(C(C)(C)C)cc2NC(=O)N[C@H]2CC[C@@H](Oc3ccc4nnc(N5CCCCC5)n4c3)c3ccccc32)cn1 [Example 102, 1-[5-tert-Butyl-2-(6-methyl-pyridin-3-yl)-2H-pyrazol-3-yl]-3-[(1S,4R)-4-(3-piperidin-1-yl-[1,2,4]triazolo[4,3-a]pyridin-6-yloxy)-1,2,3,4-tetrahydro-naphthalen-1-yl]-urea] | < 10 |
| < 10 | CC(C)N(c1nnc2ccc(O[C@@H]3CC[C@H](NC(=O)Nc4cc(C(C)(C)C)nn4-c4cccc(OCCN(C)C)c4)c4ccccc43)cn12)C(C)C [Example 103, 1-{5-tert-Butyl-2-[3-(2-dimethylamino-ethoxy)-phenyl]-2H-pyrazol-3-yl}-3-[(1S,4R)-4-(3-diisopropylamino-[1,2,4]triazolo[4,3-a]pyridin-6-yloxy)-1,2,3,4-tetrahydro-naphthalen-1-yl]-urea] | < 10 |
| < 10 | COc1c(NC(=O)N[C@H]2CC[C@@H](Oc3ccc4nnc(N5CCCCC5)n4c3)c3ccccc32)cc(C(C)(C)C)cc1NS(C)(=O)=O [Example 104, N-(5-tert-Butyl-2-methoxy-3-{3-[(1S,4R)-4-(3-piperidin-1-yl-[1,2,4]triazolo[4,3-a]pyridin-6-yloxy)-1,2,3,4-tetrahydro-naphthalen-1-yl]-ureido}-phenyl)-methanesulfonamide] | < 10 |
| < 10 | Cc1ccc(-n2nc(C(C)(C)C)cc2NC(=O)N[C@H]2CC[C@@H](Oc3cc(C)c4nnc([C@@H]5CCCN5C)n4c3)c3ccccc32)cc1 [Example 105, 1-(5-tert-Butyl-2-p-tolyl-2H-pyrazol-3-yl)-3-{(1S,4R)-4-[8-methyl-3-((S)-1-methyl-pyrrolidin-2-yl)-[1,2,4]triazolo[4,3-a]pyridin-6-yloxy]-1,2,3,4-tetrahydro-naphthalen-1-yl}-urea] | < 10 |
| < 10 | CN1CCN(Cc2ccc(-n3nc(C(C)(C)C)cc3NC(=O)N[C@H]3CC[C@@H](Oc4ccc5nnc(N6CCCCC6)n5c4)c4ccccc43)cc2)CC1 [Example 106, 1-{5-tert-Butyl-2-[4-(4-methyl-piperazin-1-ylmethyl)-phenyl]-2H-pyrazol-3-yl}-3-[(1S,4R)-4-(3-piperidin-1-yl-[1,2,4]triazolo[4,3-a]pyridin-6-yloxy)-1,2,3,4-tetrahydro-naphthalen-1-yl]-urea] | < 10 |
| < 10 | Cn1cc(-n2nc(C(C)(C)C)cc2NC(=O)N[C@H]2CC[C@@H](Oc3ccc4nnc(N5CCCCC5)n4c3)c3ccccc32)cn1 [Example 107, 1-(3-tert-Butyl-1′-methyl-1′H-[1,4′]bipyrazolyl-5-yl)-3-[(1S,4R)-4-(3-piperidin-1-yl-[1,2,4]triazolo[4,3-a]pyridin-6-yloxy)-1,2,3,4-tetrahydro-naphthalen-1-yl]-urea] | < 10 |
| < 10 | CN(C)CCn1cc(-n2nc(C(C)(C)C)cc2NC(=O)N[C@H]2CC[C@@H](Oc3ccc4nnc(N5CCCCC5)n4c3)c3ccccc32)cn1 [Example 108, 1-[3-tert-Butyl-1′-(2-dimethylamino-ethyl)-1′H-[1,4′]bipyrazolyl-5-yl]-3-[(1S,4R)-4-(3-piperidin-1-yl-[1,2,4]triazolo[4,3-a]pyridin-6-yloxy)-1,2,3,4-tetrahydro-naphthalen-1-yl]-urea] | < 10 |
| < 10 | COc1c(NC(=O)N[C@H]2CC[C@@H](Oc3ccc4nnc([C@@H]5CCCN5C)n4c3)c3ccccc32)cc(C(C)(C)C)cc1NS(C)(=O)=O [Example 109, N-[5-tert-Butyl-2-methoxy-3-(3-{(1S,4R)-4-[3-((S)-1-methyl-pyrrolidin-2-yl)-[1,2,4]triazolo[4,3-a]pyridin-6-yloxy]-1,2,3,4-tetrahydro-naphthalen-1-yl}-ureido)-phenyl]-methanesulfonamide formate salt] | < 10 |
| < 10 | C[C@H]1CCCCN1c1nnc2ccc(O[C@@H]3CC[C@H](NC(=O)Nc4cc(C(C)(C)C)nn4CCO)c4ccccc43)cn12 [Example 110, 1-[5-tert-Butyl-2-(2-hydroxy-ethyl)-2H-pyrazol-3-yl]-3-{(1S,4R)-4-[3-((S)-2-methyl-piperidin-1-yl)-[1,2,4]triazolo[4,3-a]pyridin-6-yloxy]-1,2,3,4-tetrahydro-naphthalen-1-yl}-urea] | < 10 |
| < 10 | C[C@H]1CCCCN1c1nnc2ccc(O[C@@H]3CC[C@H](NC(=O)Nc4cc(C(C)(C)C)on4)c4ccccc43)cn12 [Example 111, 1-(5-tert-Butyl-isoxazol-3-yl)-3-{(1S,4R)-4-[3-((S)-2-methyl-piperidin-1-yl)-[1,2,4]triazolo[4,3-a]pyridin-6-yloxy]-1,2,3,4-tetrahydro-naphthalen-1-yl}-urea] | < 10 |
| < 10 | CC(C)(C)c1cc(NC(=O)N[C@H]2CC[C@@H](Oc3ccc4nnc(N5CCCCC5)n4c3)c3ccccc32)n(-c2cnn(CCN3CCOCC3)c2)n1 [Example 112, 1-[3-tert-Butyl-1′-(2-morpholin-4-yl-ethyl)-1′H-[1,4′]bipyrazolyl-5-yl]-3-[(1S,4R)-4-(3-piperidin-1-yl-[1,2,4]triazolo[4,3-a]pyridin-6-yloxy)-1,2,3,4-tetrahydro-naphthalen-1-yl]-urea formate salt] | < 10 |
